How the values were obtained:
Human primary T cells [1] = test: T cell activation: CD69 surface expression by flow cytometry; type: cell-based; conditions: fold over anti-CD3 stimulated background normalized to Compound 141A
Summary of the method: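 Negatively selected human primary T cells (1×10^5/well, XVivo-15) were captured on plates coated with 10 μg/mL anti-CD3 (OKT3). They were exposed to serially diluted compounds in duplicate for 48 h at 37° C. CD69 was read by flow cytometry as fold over anti-CD3-only background, normalized to Compound 141A and binned into ranges.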

[2] = test system: human peripheral blood pan-T cells; test: T cell activation by small molecule inhibitors of Cbl-b (biomarker flow cytometry); type: cell-based; conditions: 10 μM, 48 hours
Method: Cryopreserved human peripheral blood pan-T cells (StemCell, 70024) were defrosted and resuspended in Immunocult-XF T cell Expansion Medium (StemCell, 10981). Cells were plated at 8×10^5 cells per well in 24 well plates, in presence or absence of pre-coated anti-CD3 (OKT3) antibody (ThermoFisher, 16-0037-85). Pre-coating of plates was done by diluting anti-CD3 antibody to 10 μg/mL in PBS and adding 1 ml to each well. Plates were incubated at 4° C. overnight or at 37° C. for 2 hours and washed once with PBS before use. Dilution of each small molecule cbl-b inhibitor was added. Untreated cell was used as a control. Plates were incubated for 48 hours at 37° C. with 5% CO2. T cells were fixed and permeabilized with Intracellular Fixation & Permeabilization Buffer Set (ThermoFisher, 88-8824), and continuously stained with one of PE-conjugated antibody listed in Table 10. Stained T cells were then analyzed with by flow cytometry (ThermoFisher Attune NxT). The percent of positive cells of each treated group was normalized with untreated cell and sorted into bins as follows: fold over background values from 10 to 14.9: range “A;” values from 5.0 to 9.9: range “B;” values from 2.0 to 4.9: range “C;” and values from 0.1 to 1.9: range “D.” Only for Notch1, geometric mean was used.

Human primary T cells [3] = test: T cell activation: secreted IL-2; type: cell-based; conditions: 48 hours, fold over background normalized to Compound 141A
Summary of the method: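 Negatively selected human primary T cells on plate-bound anti-CD3 (OKT3) in serum-free medium, treated 48 h at 37° C. with serial compound dilutions in duplicate. Secreted IL-2 by bead-based cytometric assay, expressed as fold over anti-CD3/CD28 background normalized to a reference compound, then binned into ranges.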

Human primary T cells [4] = test: T cell activation: secreted IFN-y; type: cell-based; conditions: 48 hours, fold over background normalized to Compound 141A
Summary of the method: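 Negatively selected primary human T cells (1×10^5/well, serum-free XVivo-15) on plates coated with 10 μg/mL anti-CD3 were exposed to serial compound dilutions for 48 h at 37 °C. Secreted IFN-γ was measured by cytometric bead array and expressed as fold over anti-CD3/CD28 background, normalized to a reference compound and binned into ranges A–D.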

[5] = biological target: Cbl-b (36-427 aa truncated form, N-terminus Avi-tag) (Homo sapiens (Human), UniProt Q13191); test: Cbl-b binding: TR-FRET displacement of BODIPY-FL probe
Sequence of Cbl-b (36-427 aa truncated form, N-terminus Avi-tag) (Q13191 36-427): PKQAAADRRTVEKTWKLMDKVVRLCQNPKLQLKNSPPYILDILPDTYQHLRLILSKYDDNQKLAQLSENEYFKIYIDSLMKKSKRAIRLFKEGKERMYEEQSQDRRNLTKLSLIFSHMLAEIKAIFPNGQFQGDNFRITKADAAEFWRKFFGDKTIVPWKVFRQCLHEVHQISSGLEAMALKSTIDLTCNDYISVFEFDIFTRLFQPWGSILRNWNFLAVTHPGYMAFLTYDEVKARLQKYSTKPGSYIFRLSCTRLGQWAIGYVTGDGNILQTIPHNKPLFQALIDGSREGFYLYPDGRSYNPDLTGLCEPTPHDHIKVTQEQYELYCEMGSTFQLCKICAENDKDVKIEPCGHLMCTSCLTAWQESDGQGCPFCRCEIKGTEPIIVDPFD
Summary of the method: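 Avi-tagged Cbl-b 36-427 preincubated 1 h at RT with streptavidin-terbium in HEPES pH 7.5/NaCl/Triton/BSA/TCEP buffer, then 1 uM BODIPY-FL inhibitor probe plus compound added for 1 h. Probe displacement read by TR-FRET; IC50 fitted.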

[6] = +CD3 (pre-coated anti-CD3 OKT3)

IC50 [5]: 1 to 5 nM
SMILES: CCNc1cc(C2(Cc3nncn3C)COC2)cc(N2Cc3c(SC)cc(CN4CCC[C@H](C)C4)cc3C2=O)n1 [Compound 126, 2-[6-(ethylamino)-4-{3-[(4-methyl-1,2,4-triazol-3-yl)methyl]oxetan-3-yl}pyridin-2-yl]-6-{[(3S)-3-methylpiperidin-1-yl]methyl}-4-(methylsulfanyl)-3H-isoindol-1-one]
CD69 10 nM (Human primary T cells [1]; 10 nM compound): A (values between 0.81 and 1.10: range “A”) | CD69 100 nM (Human primary T cells [1]; 100 nM compound): A (values between 0.81 and 1.10: range “A”) | Notch 1, geometric mean normalized with untreated cell (fold over background) [2, 6]: C (values from 2.0 to 4.9: range “C;”) | pCD3zeta, percent of positive cells normalized with untreated cell (fold over background) [2, 6]: D (values from 0.1 to 1.9: range “D.”) | pHS1, percent of positive cells normalized with untreated cell (fold over background) [2, 6]: C (values from 2.0 to 4.9: range “C;”) | pLYN, percent of positive cells normalized with untreated cell (fold over background) [2, 6]: D (values from 0.1 to 1.9: range “D.”) | pPLCg1, percent of positive cells normalized with untreated cell (fold over background) [2, 6]: C (values from 2.0 to 4.9: range “C;”) | pPLCg2, percent of positive cells normalized with untreated cell (fold over background) [2, 6]: D (values from 0.1 to 1.9: range “D.”) | pZAP70, percent of positive cells normalized with untreated cell (fold over background) [2, 6]: C (values from 2.0 to 4.9: range “C;”) | Notch 1, geometric mean normalized with untreated cell (fold over background) ([2]; −CD3): D (values from 0.1 to 1.9: range “D.”) | pCD3zeta, percent of positive cells normalized with untreated cell (fold over background) ([2]; −CD3): C (values from 2.0 to 4.9: range “C;”) | pHS1, percent of positive cells normalized with untreated cell (fold over background) ([2]; −CD3): B (values from 5.0 to 9.9: range “B;”) | pLYN, percent of positive cells normalized with untreated cell (fold over background) ([2]; −CD3): C (values from 2.0 to 4.9: range “C;”) | pPLCg1, percent of positive cells normalized with untreated cell (fold over background) ([2]; −CD3): C (values from 2.0 to 4.9: range “C;”) | pPLCg2, percent of positive cells normalized with untreated cell (fold over background) ([2]; −CD3): B (values from 5.0 to 9.9: range “B;”) | pZAP70, percent of positive cells normalized with untreated cell (fold over background) ([2]; −CD3): C (values from 2.0 to 4.9: range “C;”) | IL-2 1 nM (Human primary T cells [3]; 1 nM compound): C (values between 0.10 and 0.30: range “C”) | IL-2 10 nM (Human primary T cells [3]; 10 nM compound): B (values between 0.31 and 0.79: range “B”) | IL-2 100 nM (Human primary T cells [3]; 100 nM compound): A (between 0.80 and 1.40: range “A”) | IFN-y 1 nM (Human primary T cells [4]; 1 nM compound): B (values between 0.31 and 1.00: range “B;”) | IFN-y 10 nM (Human primary T cells [4]; 10 nM compound): B (values between 0.31 and 1.00: range “B;”) | IFN-y 100 nM (Human primary T cells [4]; 100 nM compound): A (fold over background between 1.10 and 2.00: range “A”)

From US20250304563A1, “ACTIVATORS OF EFFECTOR T CELLS” (Orum Therapeutics, Inc., priority 2022, published 2025)
